Key:
Assay type in all cases: biochemical
PI3K β = biological target: T1, PI3K β (Homo sapiens, UniProt P42338); experiment: PI3-kinase HTRF inhibition assay, PI3K β; details: in vitro
T1 construct: purchased Upstate
Protocol: (§1) Commercial kits or systems for assaying PI3-K activities are available. The commercially available kits or systems can be used to screen for inhibitors and/or agonists of PI3-Ks including but not limited to PI 3-Kinase α, β, δ, and γ. Anr exemplary system is PI 3-Kinase (human) HTRF™ Assay from Upstate. […] Briefly, the assay is a time resolved FRET assay that indirectly measures PIP3 product formed by the activity of a PI3-K. The kinase reaction is performed in a microtitre plate (e.g., a 384 well microtitre plate). The total reaction volume is approximately 20 ul per well. In the first step, each well receives 2 ul of test compound in 20% dimethylsulphoxide resulting in a 2% DMSO final concentration. Next, approximately 14.5 ul of a kinase/PIP2 mixture (diluted in 1× reaction buffer) is added per well for a final concentration of 0.25-0.3 ug/ml kinase and 10 μM PIP2. The plate is sealed and incubated for 15 minutes at room temperature. To start the reaction, 3.5 ul of ATP (diluted in 1× reaction buffer) is added per well for a final concentration of 10 μM ATP. The plate is sealed and incubated for 1 hour at room temperature. The reaction is stopped by adding 5ul of Stop Solution per well and then 5 ul of Detection Mix is added per well. The plate is sealed, incubated for 1 hour at room temperature, and then read on an appropriate plate reader. Data is analyzed and IC50s are generated using GraphPad Prism 5. For PI3K α, β, δ, and γ, the nM concentration of inhibitor to reach IC50 is provided Inhibition of PI3K a at lower concentrations than those for β, δ, and γ provides evidence of specificity within this group of kinases. Similar assays, and others known in the art, can be used to measure the percent inhibition of other kinases, including but not limited to PI3K class II kinases, phosphoinositide 4 kinases (PI4K), and phosphoinositide 5 kinases (PI5K).

PI3K γ = biological target: T2, PI3K γ (Homo sapiens, UniProt P48736); experiment: PI3-kinase HTRF inhibition assay, PI3K γ; details: in vitro
T2 construct: purchased Upstate
Protocol: as §1

PI3K α = biological target: T3, PI3K α (Homo sapiens, UniProt P42336); experiment: PI3-kinase HTRF inhibition assay, PI3K α; details: in vitro
T3 construct: purchased Upstate
T3 sequence (P42336 whole entry): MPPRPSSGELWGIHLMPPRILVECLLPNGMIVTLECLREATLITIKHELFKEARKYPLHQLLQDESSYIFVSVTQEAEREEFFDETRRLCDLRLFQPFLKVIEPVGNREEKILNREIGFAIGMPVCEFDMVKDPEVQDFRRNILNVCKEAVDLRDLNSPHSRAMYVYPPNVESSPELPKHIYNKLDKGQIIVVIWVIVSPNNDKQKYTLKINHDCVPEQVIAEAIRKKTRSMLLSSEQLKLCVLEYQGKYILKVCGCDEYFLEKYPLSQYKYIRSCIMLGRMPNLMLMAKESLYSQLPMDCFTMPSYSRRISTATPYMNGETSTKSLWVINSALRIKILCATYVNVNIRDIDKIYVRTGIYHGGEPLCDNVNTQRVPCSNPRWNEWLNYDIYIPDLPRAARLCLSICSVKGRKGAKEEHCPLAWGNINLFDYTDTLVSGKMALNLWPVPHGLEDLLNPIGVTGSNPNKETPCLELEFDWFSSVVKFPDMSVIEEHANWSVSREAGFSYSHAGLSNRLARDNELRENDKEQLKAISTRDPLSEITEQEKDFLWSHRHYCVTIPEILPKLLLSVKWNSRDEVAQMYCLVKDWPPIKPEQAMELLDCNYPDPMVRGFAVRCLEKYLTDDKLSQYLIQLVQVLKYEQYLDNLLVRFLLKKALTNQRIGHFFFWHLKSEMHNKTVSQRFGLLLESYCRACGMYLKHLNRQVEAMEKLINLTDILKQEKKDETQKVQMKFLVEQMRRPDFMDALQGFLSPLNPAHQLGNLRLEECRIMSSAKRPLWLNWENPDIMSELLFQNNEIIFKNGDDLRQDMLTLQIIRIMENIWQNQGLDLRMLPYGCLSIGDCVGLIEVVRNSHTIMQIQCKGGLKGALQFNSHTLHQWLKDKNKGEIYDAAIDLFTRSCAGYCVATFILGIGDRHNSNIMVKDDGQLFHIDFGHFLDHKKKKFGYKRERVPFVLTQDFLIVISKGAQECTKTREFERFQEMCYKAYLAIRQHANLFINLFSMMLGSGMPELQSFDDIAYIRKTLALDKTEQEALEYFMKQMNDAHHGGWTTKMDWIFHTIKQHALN
T3 sequence (P27986 whole entry partner): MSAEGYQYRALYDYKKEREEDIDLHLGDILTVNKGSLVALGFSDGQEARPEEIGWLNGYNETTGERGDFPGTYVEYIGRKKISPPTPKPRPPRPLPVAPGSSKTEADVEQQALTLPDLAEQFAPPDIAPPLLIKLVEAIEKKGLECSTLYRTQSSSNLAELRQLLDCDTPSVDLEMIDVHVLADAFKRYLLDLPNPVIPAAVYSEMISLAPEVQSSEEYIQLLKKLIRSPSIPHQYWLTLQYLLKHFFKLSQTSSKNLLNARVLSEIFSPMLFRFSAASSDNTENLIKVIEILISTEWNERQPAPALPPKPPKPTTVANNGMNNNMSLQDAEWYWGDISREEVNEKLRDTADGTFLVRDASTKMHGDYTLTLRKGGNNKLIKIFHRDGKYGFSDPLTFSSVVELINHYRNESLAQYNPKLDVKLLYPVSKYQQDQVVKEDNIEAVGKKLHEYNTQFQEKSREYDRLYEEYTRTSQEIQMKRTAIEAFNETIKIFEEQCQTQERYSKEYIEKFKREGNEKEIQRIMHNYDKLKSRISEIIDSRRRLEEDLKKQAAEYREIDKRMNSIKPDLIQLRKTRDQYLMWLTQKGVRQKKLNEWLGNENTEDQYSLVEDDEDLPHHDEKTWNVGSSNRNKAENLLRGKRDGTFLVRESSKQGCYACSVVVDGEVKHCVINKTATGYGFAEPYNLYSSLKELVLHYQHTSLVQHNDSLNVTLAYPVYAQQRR
Protocol: as §1

PI3K δ = biological target: T4, PI3K δ (Homo sapiens, UniProt O00329); experiment: PI3-kinase HTRF inhibition assay, PI3K δ; details: in vitro
T4 construct: purchased Upstate
Protocol: as §1

mTORC = biological target: T5, mTORC (Homo sapiens, UniProt P42345); experiment: mTOR inhibition assay (in vitro IC50)
T5 construct: purchased Invitrogen
T5 sequence (P42345 1360-2549 limits assumed): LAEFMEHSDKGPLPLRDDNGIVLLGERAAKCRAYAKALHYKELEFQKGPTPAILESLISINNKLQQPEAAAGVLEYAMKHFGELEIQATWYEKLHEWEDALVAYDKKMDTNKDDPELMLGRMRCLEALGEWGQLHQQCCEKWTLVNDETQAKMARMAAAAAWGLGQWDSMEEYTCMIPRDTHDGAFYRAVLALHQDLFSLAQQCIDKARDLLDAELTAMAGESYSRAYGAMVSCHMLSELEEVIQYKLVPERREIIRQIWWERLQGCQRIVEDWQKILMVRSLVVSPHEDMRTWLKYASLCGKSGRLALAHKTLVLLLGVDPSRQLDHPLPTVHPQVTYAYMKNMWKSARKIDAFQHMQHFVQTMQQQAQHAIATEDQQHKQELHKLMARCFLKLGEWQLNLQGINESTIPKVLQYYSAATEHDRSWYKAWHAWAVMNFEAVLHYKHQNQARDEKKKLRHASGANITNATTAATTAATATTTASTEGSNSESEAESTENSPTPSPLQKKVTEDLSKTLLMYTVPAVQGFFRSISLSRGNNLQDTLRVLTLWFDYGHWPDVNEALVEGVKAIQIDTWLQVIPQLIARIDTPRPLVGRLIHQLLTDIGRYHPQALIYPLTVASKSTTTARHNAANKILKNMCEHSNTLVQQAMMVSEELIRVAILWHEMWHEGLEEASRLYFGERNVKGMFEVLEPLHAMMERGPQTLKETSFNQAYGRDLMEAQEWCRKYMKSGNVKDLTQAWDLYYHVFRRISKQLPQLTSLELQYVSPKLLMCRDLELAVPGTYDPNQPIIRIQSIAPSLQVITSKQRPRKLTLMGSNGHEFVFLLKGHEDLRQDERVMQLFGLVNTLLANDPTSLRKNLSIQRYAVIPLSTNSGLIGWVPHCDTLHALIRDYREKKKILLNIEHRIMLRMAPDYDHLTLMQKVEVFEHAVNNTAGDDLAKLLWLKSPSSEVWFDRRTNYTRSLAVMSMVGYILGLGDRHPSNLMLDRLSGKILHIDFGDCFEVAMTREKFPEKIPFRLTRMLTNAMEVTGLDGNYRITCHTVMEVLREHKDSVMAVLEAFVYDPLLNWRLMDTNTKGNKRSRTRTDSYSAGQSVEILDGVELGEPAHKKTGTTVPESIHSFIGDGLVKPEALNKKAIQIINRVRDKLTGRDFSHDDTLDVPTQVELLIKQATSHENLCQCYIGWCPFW
Protocol: The cross-activity or lack thereof of one or more compounds of the present invention against mTor can be measured according to any procedures known in the art or methods disclosed below. The compounds described herein can be tested against recombinant mTOR (Invitrogen) in an assay containing 50 mM HEPES, pH 7.5, 1 mM EGTA, 10 mM MgCl2, 2.5 mM, 0.01% Tween, 10 μM ATP (2.5 μCi of […]), and 3 μg/mL BSA. Rat recombinant PHAS-1/4EBP1 (Calbiochem; 2 mg/mL) is used as a substrate. Reactions are terminated by spotting onto nitrocellulose, which is washed with 1M NaCl/1% phosphoric acid (approximately 6 times, 5-10 minutes each). Sheets are dried and the transferred radioactivity quantitated by phosphorimaging.
Other kits or systems for assaying mTOR activity are commercially available. For instance, one can use Invitrogen's LanthaScreen™ Kinase assay to test the inhibitors of mTOR disclosed herein. This assay is a time resolved FRET platform that measures the phosphorylation of GFP labeled 4EBP1 by mTOR kinase. The kinase reaction is performed in a white 384 well microtitre plate. The total reaction volume is 20 ul per well and the reaction buffer composition is 50 mM HEPES pH7.5, 0.01% Polysorbate 20, 1 mM EGTA, 10 mM MnCl2, and 2 mM DTT. In the first step, each well receives 2 ul of test compound in 20% dimethylsulphoxide resulting in a 2% DMSO final concentration. Next, 8 ul of mTOR diluted in reaction buffer is added per well for a 60 ng/ml final concentration. To start the reaction, 10 ul of an ATP/GFP-4EBP1 mixture (diluted in reaction buffer) is added per well for a final concentration of 10 μM ATP and 0.5 μM GFP-4EBP1. The plate is sealed and incubated for 1 hour at room temperature. The reaction is stopped by adding 10 ul per well of a Tb-anti-pT46 4EBP1 antibody/EDTA mixture (diluted in TR-FRET buffer) for a final concentration of 1.3 nM antibody and 6.7 mM EDTA. The plate is sealed, incubated for 1 hour at room temperature, and then read on a plate reader set up for LanthaScreen™ TR-FRET. Data is analyzed and IC50s are generated using GraphPad Prism 5.

T1 sequence (P42338 whole entry): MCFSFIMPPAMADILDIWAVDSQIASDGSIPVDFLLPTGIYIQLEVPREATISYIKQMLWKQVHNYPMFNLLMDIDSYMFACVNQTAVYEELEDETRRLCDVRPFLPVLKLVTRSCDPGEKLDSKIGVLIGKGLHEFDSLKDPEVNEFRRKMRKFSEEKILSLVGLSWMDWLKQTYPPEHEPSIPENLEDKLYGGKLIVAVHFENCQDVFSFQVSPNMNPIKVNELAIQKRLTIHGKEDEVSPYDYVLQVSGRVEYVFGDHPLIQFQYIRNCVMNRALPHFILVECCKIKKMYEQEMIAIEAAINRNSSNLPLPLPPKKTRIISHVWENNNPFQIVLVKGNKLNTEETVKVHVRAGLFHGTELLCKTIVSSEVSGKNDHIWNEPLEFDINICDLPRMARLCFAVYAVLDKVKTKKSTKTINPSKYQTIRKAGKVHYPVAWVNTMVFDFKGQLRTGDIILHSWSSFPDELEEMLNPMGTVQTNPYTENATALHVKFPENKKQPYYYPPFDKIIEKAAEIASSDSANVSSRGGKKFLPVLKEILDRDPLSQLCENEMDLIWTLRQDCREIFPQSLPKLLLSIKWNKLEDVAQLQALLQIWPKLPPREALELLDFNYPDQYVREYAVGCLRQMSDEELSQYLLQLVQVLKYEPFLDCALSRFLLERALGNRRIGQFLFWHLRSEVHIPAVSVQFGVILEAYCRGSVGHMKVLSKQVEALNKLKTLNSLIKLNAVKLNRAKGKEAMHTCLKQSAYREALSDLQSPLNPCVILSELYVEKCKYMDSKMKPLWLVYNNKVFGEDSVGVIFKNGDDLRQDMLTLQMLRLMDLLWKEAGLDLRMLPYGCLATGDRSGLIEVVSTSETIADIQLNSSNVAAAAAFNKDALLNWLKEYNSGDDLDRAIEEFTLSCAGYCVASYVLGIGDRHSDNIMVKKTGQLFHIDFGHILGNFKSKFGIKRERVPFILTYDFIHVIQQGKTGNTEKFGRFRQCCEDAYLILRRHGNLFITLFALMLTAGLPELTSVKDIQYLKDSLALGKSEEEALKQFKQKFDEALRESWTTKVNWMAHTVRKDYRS
T1 sequence (P27986 whole entry partner): as the sequence (P27986 whole entry partner) above

Compound | IC50 (PI3K β) | IC50 (PI3K γ) | IC50 (PI3K α) | IC50 (PI3K δ) | IC50 (mTORC)
Cc1ncc(-c2ccc3ncc(C(=O)N4CCOCC4)n3c2)c2cn[nH]c12 [Compound 1] | > 10 µM | > 10 µM | < 0.1 µM | < 10 µM | –
[2H]c1c(-c2ccc3ncc(C(=O)N4CCOCC4)n3c2)c([2H])c2nc(N)oc2c1[2H] [Compound 2] | < 10 µM | < 0.1 µM | < 0.1 µM | > 10 µM | –
O=C(c1cnc2ccc(-c3ccnc4[nH]ncc34)cn12)N1CCOCC1 [Compound 3] | > 10 µM | > 10 µM | < 10 µM | > 10 µM | > 10 µM
CN1CC2CN(C(=O)c3cnc4ccc(-c5ccc6oc(N)nc6c5)cn34)CC2C1 (stereo not shown) [Compound 4] | < 1 µM | < 1 µM | < 0.1 µM | < 1 µM | > 10 µM
O=C(c1cnc2ccc(-c3cnc4cc[nH]c4c3)cn12)N1CCOCC1 [Compound 5] | > 10 µM | > 10 µM | < 10 µM | > 10 µM | –
O=C(c1cnc2ccc(-c3cnc4cn[nH]c4c3)cn12)N1CCOCC1 [Compound 6] | > 10 µM | > 10 µM | – | > 10 µM | –
Cc1ncc(-c2ccc3ncc(C(=O)N4CCOCC4)n3c2)c2cc[nH]c12 [Compound 7] | > 10 µM | > 10 µM | < 10 µM | > 10 µM | –
Cn1ncc2c(-c3ccc4ncc(C(=O)N5CCOCC5)n4c3)cncc21 [Compound 8] | > 10 µM | < 10 µM | < 10 µM | > 10 µM | –
Cc1ncc(-c2ccc3ncc(C(=O)N4C5CCC4COC5)n3c2)c2cn[nH]c12 [Compound 9] | > 10 µM | > 10 µM | < 0.1 µM | < 10 µM | > 10 µM
O=C(c1cnc2ccc(-c3cncc4c3cnn4CCO)cn12)N1CCOCC1 [Compound 10] | > 10 µM | > 10 µM | > 10 µM | > 10 µM | –
Nc1nc2cc(-c3cnc4ccc(C(=O)N5C6CCC5COC6)cn34)ccc2o1 [Compound 11] | > 10 µM | > 10 µM | > 10 µM | > 10 µM | –
Nc1nc2cc(-c3cnc4ccc(C(=O)N5CCOCC5)cn34)ccc2o1 [Compound 12] | > 10 µM | – | > 10 µM | > 10 µM | –
CN1CCN(c2nnc3ccc(-c4ccc5nc(N)oc5c4)cn23)CC1 [Compound 13] | > 10 µM | > 10 µM | > 10 µM | > 10 µM | –
Cc1cc(-c2ccc3nc(N)oc3c2)cn2c(-c3ccncc3)nnc12 [Compound 14] | < 10 µM | > 10 µM | > 10 µM | > 10 µM | –
Nc1nc2ccc(-c3ccc4ncc(C(=O)N5CCOCC5)n4c3)cc2[nH]1 [Compound 15] | > 10 µM | > 10 µM | < 1 µM | > 10 µM | –
CN1CCN(CCc2nnc3ccc(-c4ccc5nc(N)oc5c4)cn23)CC1 [Compound 16] | > 10 µM | > 10 µM | > 10 µM | > 10 µM | –
Cc1cc(-c2ccc3nc(N)oc3c2)cn2c(N3CCN(C)CC3)nnc12 [Compound 17] | > 10 µM | > 10 µM | > 10 µM | > 10 µM | –
CN1CCN(Cc2nnc3ccc(-c4ccc5nc(N)oc5c4)cn23)CC1 [Compound 18] | > 10 µM | > 10 µM | > 10 µM | > 10 µM | –
Cc1cc(-c2ccc3nc(N)oc3c2)cn2c(CCN3CCN(C)CC3)nnc12 [Compound 19] | > 10 µM | > 10 µM | > 10 µM | > 10 µM | –
Cc1cc(-c2ccc3nc(N)oc3c2)cn2c(CN3CCN(C)CC3)nnc12 [Compound 20] | > 10 µM | > 10 µM | > 10 µM | > 10 µM | –
Nc1nc2cc(-c3ccc4ncc(C(=O)NCCOCCO)n4c3)ccc2o1 [Compound 21] | < 10 µM | < 1 µM | < 1 µM | < 10 µM | –
Nc1nc2cc(-c3ccc4ncc(C(=O)NCCOCC(=O)O)n4c3)ccc2o1 [Compound 22] | < 1 µM | < 0.1 µM | < 0.1 µM | – | –

From US9127000B2, “Heterocyclic compounds and uses thereof” (Intellikine, LLC., priority 2011, dated 2015)
